Assay results taken from article PMC9866191, “Novel 9-Benzylaminoacridine Derivatives as Dual Inhibitors of Phosphodiesterase 5 and Topoisomerase II for the Treatment of Colon Cancer” (Molecules, 2023).

Legend:
human DNA Topo II = target: T1, human DNA Topo II (Homo sapiens, UniProt P11388); experiment: Topo II-mediated relaxation of supercoiled pHOT1 plasmid DNA; format: biochemical; conditions: for DNA band pattern in Topo II relaxation assay: at 1 and 5 µM doses, similar to doxorubicin
T1 construct: purchased Topogen, Columbus, OH, USA
T1 sequence (P11388 whole entry): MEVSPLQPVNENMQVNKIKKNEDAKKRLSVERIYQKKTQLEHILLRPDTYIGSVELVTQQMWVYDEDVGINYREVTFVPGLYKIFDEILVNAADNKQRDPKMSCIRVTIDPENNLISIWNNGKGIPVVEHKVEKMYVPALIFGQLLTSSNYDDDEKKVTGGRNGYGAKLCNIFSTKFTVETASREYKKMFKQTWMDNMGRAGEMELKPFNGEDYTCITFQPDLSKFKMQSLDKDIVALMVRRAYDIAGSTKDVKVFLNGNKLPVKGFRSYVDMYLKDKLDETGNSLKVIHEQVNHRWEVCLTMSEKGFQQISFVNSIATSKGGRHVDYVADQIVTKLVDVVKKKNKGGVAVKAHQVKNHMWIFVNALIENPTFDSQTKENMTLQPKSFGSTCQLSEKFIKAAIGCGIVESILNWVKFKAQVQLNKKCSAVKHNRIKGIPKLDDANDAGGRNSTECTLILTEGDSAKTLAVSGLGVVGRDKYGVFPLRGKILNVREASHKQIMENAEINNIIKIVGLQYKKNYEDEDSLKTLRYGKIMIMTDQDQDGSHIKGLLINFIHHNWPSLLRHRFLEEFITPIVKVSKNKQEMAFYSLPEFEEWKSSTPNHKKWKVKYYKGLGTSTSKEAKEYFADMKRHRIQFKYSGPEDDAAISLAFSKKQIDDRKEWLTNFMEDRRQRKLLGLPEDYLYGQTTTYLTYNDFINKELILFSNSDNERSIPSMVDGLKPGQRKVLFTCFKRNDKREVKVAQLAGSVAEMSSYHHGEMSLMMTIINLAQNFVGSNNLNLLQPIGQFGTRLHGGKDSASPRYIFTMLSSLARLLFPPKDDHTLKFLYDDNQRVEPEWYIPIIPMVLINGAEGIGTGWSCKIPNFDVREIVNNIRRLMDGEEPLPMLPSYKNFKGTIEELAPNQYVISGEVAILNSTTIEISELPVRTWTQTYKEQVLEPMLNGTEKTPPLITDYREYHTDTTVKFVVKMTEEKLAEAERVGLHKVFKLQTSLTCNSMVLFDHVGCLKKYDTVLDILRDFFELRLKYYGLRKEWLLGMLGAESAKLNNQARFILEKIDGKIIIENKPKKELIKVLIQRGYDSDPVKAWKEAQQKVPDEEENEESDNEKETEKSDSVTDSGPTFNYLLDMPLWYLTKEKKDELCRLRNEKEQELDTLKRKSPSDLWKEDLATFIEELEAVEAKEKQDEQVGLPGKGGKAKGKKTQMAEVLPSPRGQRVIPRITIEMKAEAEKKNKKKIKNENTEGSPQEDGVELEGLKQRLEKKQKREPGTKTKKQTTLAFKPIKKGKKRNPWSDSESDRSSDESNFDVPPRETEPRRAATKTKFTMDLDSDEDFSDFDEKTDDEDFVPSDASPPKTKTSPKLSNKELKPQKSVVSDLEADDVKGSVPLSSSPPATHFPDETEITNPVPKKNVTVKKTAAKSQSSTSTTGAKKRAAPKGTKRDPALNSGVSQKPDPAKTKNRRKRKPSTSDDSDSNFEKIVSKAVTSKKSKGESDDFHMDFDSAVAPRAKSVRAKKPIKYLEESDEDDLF
Procedure: Consequently, the effects of the synthesized compounds on Topo II activity were evaluated with a cell-free assay using a purified human DNA Topo II-protein-mediated relaxation of the negatively supercoiled pHOT1 plasmid DNA [40]. […] Two Topo II inhibitors (doxorubicin and etoposide) were used as positive controls.
The reaction was terminated by adding 2 μL of 10% SDS, followed by 2.5 μL of proteinase K (50 μg/mL) to digest the bound protein. The system was incubated at 37 °C for 15 min. The DNA product was finally analyzed using electrophoresis on a vertical 1.5% agarose gel at 2 volts/cm in 1 × TAE buffer and photographed using the Eagle Eye II system (Stratagene, La Jolla, CA, USA).
Figure 2 Effects of compounds on topoisomerase II activity. Effects on Topo II-mediated relaxation of supercoiled pHOT1 plasmid DNA in a cell-free system. Positive control: etoposide (10 µM); doxorubicin (5 µM) used as Topo II poison (induction of linear DNA); DNA relaxation: plasmid DNA + topo IIα + solvent control. Nick, nicked DNA; Sc, supercoiled DNA; Lin, linear DNA.

HCT-116 cells [1] = experiment: Annexin-V/PI apoptosis assay; format: cell-based, human; conditions: 10 µM, 24 h
Procedure: For the same set of compounds, the apoptosis-inducing effects in HCT-116 cells were assessed using Annexin-V/PI double staining at 10 µM (Figure 3).
The number of apoptotic/necrotic cells was analyzed using flow cytometry following the manufacturer’s protocol. Markers were assessed using a FACS-Caliburflow cytometer (Beckman Coulter, Taipei, Taiwan) and analyzed using WinMDI 2.8 software.
(§1) Figure 3 Apoptosis induction and cell cycle effects of compounds in HCT-116 cells. (A) The apoptotic population of HCT-116 cells was analyzed using flow cytometry after treatment with 10 µM of the test compound for 24 h followed by Annexin V/propidium iodide (PI) staining. (B) After treatment with compound concentrations of 10 µM for 24 h, cells were fixed, stained with propidium iodide (PI), and analyzed for cell cycle distribution. Results are expressed as the means ± SD from three independent experiments (* p < 0.05 and ** p < 0.01 *** p < 0.001, control versus compound).

RPMI-8226 = experiment: NCI-60 one-dose screen; format: cell-based; conditions: Homo sapiens; RPMI-8226, Leukemia panel; single dose 10^−5 M; read-out: Growth inhibition %
UACC-257 = experiment: NCI-60 one-dose screen; format: cell-based; conditions: Homo sapiens; UACC-257, Melanoma panel; single dose 10^−5 M; read-out: Growth inhibition %
HCT-116 cells [2] = experiment: Cell cycle analysis (PI, flow cytometry); format: cell-based, human; conditions: 10 µM, 24 h, PI staining
Procedure: To analyze cell cycle changes, cells permeated at 1 × 10^6 × cells/mL were trypsinized and diluted and then fixed in 70% ethanol at 4 °C. Cell cycle arrest in HCT-116 cells following compound exposure was accomplished using propidium iodide (Sigma-Aldrich, St. Louis, MI, USA). The markers were then assessed using a FACS-Caliburflow cytometer (Beckman Coulter, Taipei, Taiwan) and analyzed using WinMDI software. […]
as §1

Compound	DNA band pattern in Topo II relaxation assay (human DNA Topo II)	induction of apoptosis (HCT-116 cells [1])	inhibition at 10 µM (RPMI-8226)	inhibition at 10 µM (UACC-257)	effect on cell cycle (HCT-116 cells [2])	concentration at which Topo II inhibition (increase of supercoiled DNA) is shown (human DNA Topo II; cell-free relaxation assay, gel)
COc1ccc(CNc2c3ccccc3nc3ccccc23)cc1OC [Compound 18, Acridin-9-yl-(3,4-dimethoxybenzyl)-amine]	larger base pair band than nicked DNA	20%–50%	99.4%	77.9%	increased the number of cells in the S phase and G2/M phase	–
c1csc(-c2ccc(CNc3c4ccccc4nc4ccccc34)cc2)c1 [Compound 24, Acridin-9-yl-(4-thiophen-2-yl-benzyl)-amine]	larger base pair band than nicked DNA	20%–50%	144%	137%	arrested the cell cycle in the S phase	–
COc1ccc2nc3ccccc3c(NCc3ccc(F)cc3)c2c1 [Compound 28, (4-Fluorobenzyl)-(2-methoxyacridin-9-yl)-amine]	–	less than 20%	143%	111%	increased the number of cells in the S phase and G2/M phase	1 µM
